The values that follow are results of earlier work, collected in US4112071A, “Antibiotic complex” (priority 1977, dated 1978).

One series deals with animal and human cancers. To be noted: Cancer Chemother. Rep., Part 1, 58, 255 (1974).
For series [1], the system named is several animal tumor systems. To be noted: J. Antibiotics, April 1974, 254-259.

On to `CC(=O)[C@]1(O)Cc2c(O)c3c(c(O)c2[C@@H](O[C@H]2C[C@H](N)[C@H](O)[C@H](C)O2)C1)C(=O)c1c(O)cccc1C3=O` [carminomycin I], for which the “antitumor activity in a variety of animal and human cancers” value in the series on animal and human cancers is given as “promising antitumor activity”. In series [1], the “activity against several animal tumor systems” value was “active”.
